# According to ChEMBL document CHEMBL4431319, “Design and synthesis of 4'-O-alkylamino-tethered-benzylideneindolin-2-ones as potent cytotoxic and apoptosis inducing agents” (Bioorg Med Chem Lett, 2016):
# Calls of active or inactive are those of the source. The rule behind the calls is not given here.
# How the values were obtained:
# [1] = system: MCF-10A; assay: Cytotoxicity against human MCF10A cells after 48 hrs by MTT assay; assay type: cell-based
# [2] = system: MDA-MB-231; assay: Cytotoxicity against human MDA-MB-231 cells after 48 hrs by MTT assay; assay type: functional, cell-based; conditions: MDA-MB-231, 48 h
# [3] = system: BT-549; assay: Cytotoxicity against human BT549 cells after 48 hrs by MTT assay; assay type: functional, cell-based; conditions: BT-549, 48 h
# [4] = system: DU-145; assay: Cytotoxicity against human DU145 cells after 48 hrs by MTT assay; assay type: functional, cell-based; conditions: DU-145, 48 h
# [5] = system: A549; assay: Cytotoxicity against human A549 cells after 48 hrs by MTT assay; assay type: functional, cell-based; conditions: A549, 48 h
# [6] = system: MDA-MB-231; assay: Induction of apoptosis in human MDA-MB-231 cells assessed as pyknosis at compound IC50 after 24 hrs by […] staining-based fluorescence microscopic analysis; assay type: functional, cell-based
# [7] = system: MDA-MB-231; assay: Induction of apoptosis in human MDA-MB-231 cells assessed as chromatin condensation at compound IC50 after 24 hrs by […] staining-based fluorescence microscopic analysis; assay type: functional, cell-based
# [8] = system: MDA-MB-231; assay: Induction of ROS generation in human MDA-MB-231 cells at compound IC50 after 24 hrs by DCFDA staining-based spectrofluorometric analysis relative to control; assay type: functional, cell-based
# [9] = system: MDA-MB-231; assay: Disruption of F-actin-mediated stress fiber formation around nucleus in human MDA-MB-231 cells at compound IC50 after 12 hrs by rhodamine-phalloidin/[…] staining-based confocal microscopic analysis; assay type: functional, cell-based
# [10] = system: MDA-MB-231; assay: Induction of nuclear shrinkage in human MDA-MB-231 cells at IC50 after 24 to 48 hrs by phase contrast microscopic analysis; assay type: functional, cell-based
# [11] = system: MDA-MB-231; assay: Induction of detachment of human MDA-MB-231 cells at compound IC50 after 24 to 48 hrs by phase contrast microscopic analysis; assay type: functional, cell-based
# [12] = system: MDA-MB-231; assay: Antimigratory activity in human MDA-MB-231 cells at compound IC50 after 24 to 48 hrs by wound healing assay relative to control; assay type: functional, cell-based
# [13] = system: MDA-MB-231; assay: Induction of apoptosis in human MDA-MB-231 cells assessed as fragmented nuclei at compound IC50 after 24 hrs by […] staining-based fluorescence microscopic analysis; assay type: functional, cell-based
# [14] = system: MDA-MB-231; assay: Induction of apoptosis in human MDA-MB-231 cells assessed as appearance of horseshoe shaped nuclei at compound IC50 after 24 hrs by […] staining-based fluorescence microscopic analysis; assay type: functional, cell-based
# [15] = system: MDA-MB-231; assay: Disruption of mitochondrial membrane potential in human MDA-MB-231 cells at compound IC50 after 24 hrs by rhodamine 123 staining-based spectrofluorometric analysis; assay type: functional
# [16] = system: MDA-MB-231; assay: Induction of cell cycle arrest in human MDA-MB-231 cells assessed as accumulation at G2/M phase at 10 uM after 24 hrs by propidium iodide staining based flow cytometry (reference value: 18.86%); assay type: functional
# [17] = system: MDA-MB-231; assay: Induction of cell cycle arrest in human MDA-MB-231 cells assessed as accumulation at G2/M phase at 5 uM after 24 hrs by propidium iodide staining based flow cytometry (reference value: 18.86%); assay type: functional
# [18] = system: MDA-MB-231; assay: Induction of cell cycle arrest in human MDA-MB-231 cells assessed as accumulation at G0/G1 phase at 5 uM after 24 hrs by propidium iodide staining based flow cytometry (reference value: 55.02%); assay type: functional
# [19] = system: MDA-MB-231; assay: Induction of cell cycle arrest in human MDA-MB-231 cells assessed as accumulation at […] at 2.5 uM after 24 hrs by propidium iodide staining based flow cytometry (reference value: 26.12%); assay type: functional
# [20] = system: MDA-MB-231; assay: Induction of cell cycle arrest in human MDA-MB-231 cells assessed as accumulation at G2/M phase at 2.5 uM after 24 hrs by propidium iodide staining based flow cytometry (reference value: 18.86%); assay type: functional
# [21] = system: MDA-MB-231; assay: Induction of cell cycle arrest in human MDA-MB-231 cells assessed as accumulation at G0/G1 phase at 10 uM after 24 hrs by propidium iodide staining based flow cytometry (reference value: 55.02%); assay type: functional
# [22] = system: MDA-MB-231; assay: Induction of cell cycle arrest in human MDA-MB-231 cells assessed as accumulation at G0/G1 phase at 2.5 uM after 24 hrs by propidium iodide staining based flow cytometry (reference value: 55.02%); assay type: functional
# [23] = system: MDA-MB-231; assay: Induction of cell cycle arrest in human MDA-MB-231 cells assessed as accumulation at […] at 5 uM after 24 hrs by propidium iodide staining based flow cytometry (reference value: 26.12%); assay type: functional
# [24] = system: MDA-MB-231; assay: Induction of cell cycle arrest in human MDA-MB-231 cells assessed as accumulation at […] at 10 uM after 24 hrs by propidium iodide staining based flow cytometry (reference value: 26.12%); assay type: functional
smiles,measurement,setting,value
COc1cc(/C=C2\C(=O)Nc3ccccc32)ccc1OCCCN1CCN(C)CC1,IC50,[1],> 100 µM
same,IC50,[2],2.07 µM
same,IC50,[3],2.53 µM
same,IC50,[4],2.23 µM
same,IC50,[5],3.35 µM
COc1cc(/C=C2\C(=O)Nc3ccccc32)ccc1OCCCN1CCc2ccccc21,IC50,[2],> 20 µM
same,IC50,[3],> 20 µM
same,IC50,[4],> 20 µM
same,IC50,[5],> 20 µM
COc1cc(/C=C2\C(=O)Nc3ccc(Cl)cc32)ccc1OCCCN1CCN(c2ccccn2)CC1,IC50,[1],51.3 µM
same,IC50,[2],14.8 µM
same,IC50,[3],> 20 µM
same,IC50,[4],> 20 µM
same,IC50,[5],> 20 µM
COc1cc(/C=C2\C(=O)Nc3ccc(Cl)cc32)ccc1OCCCN1CCOCC1,IC50,[1],> 100 µM
same,IC50,[2],2.51 µM
same,IC50,[3],2.79 µM
same,IC50,[4],2.91 µM
same,IC50,[5],5.5 µM
COc1cc(/C=C2\C(=O)Nc3ccccc32)ccc1OCCN1CCOCC1,IC50,[2],> 20 µM
same,IC50,[3],> 20 µM
same,IC50,[4],> 20 µM
same,IC50,[5],> 20 µM
COc1cc(/C=C2\C(=O)Nc3ccc(Cl)cc32)ccc1OCCCN1CC(C)OC(C)C1 (configuration not stated),Activity,[6],Active
same,Activity,[7],Active
same,Activity,[8],Active
same,IC50,[1],54.6 µM
same,Activity,[9],Active
same,Activity,[10],Active
same,IC50,[2],1.99 µM
same,Activity,[11],Active
same,IC50,[3],2.77 µM
same,Activity,[12],Active
same,Activity,[13],Active
same,Activity,[14],Active
same,IC50,[4],2.71 µM
same,IC50,[5],6.25 µM
same,Activity,[15],28%
COc1cc(/C=C2\C(=O)Nc3ccc(Cl)cc32)ccc1OCCCN1CCN(C)CC1,Activity,[6],Active
same,Activity,[7],Active
same,Activity,[8],Active
same,IC50,[1],43.6 µM
same,Activity,[9],Active
same,Activity,[10],Active
same,IC50,[2],1.75 µM
same,Activity,[11],Active
same,IC50,[3],2.17 µM
same,Activity,[12],Active
same,Activity,[13],Active
same,Activity,[14],Active
same,IC50,[4],2.15 µM
same,IC50,[5],11.3 µM
same,Activity,[15],32%
COc1cc(/C=C2\C(=O)Nc3ccccc32)ccc1OCCCN1CCN(c2ncccc2C(F)(F)F)CC1,IC50,[2],> 20 µM
same,IC50,[3],> 20 µM
same,IC50,[4],> 20 µM
same,IC50,[5],> 20 µM
COc1cc(/C=C2\C(=O)Nc3ccc(C)cc32)ccc1OCCCN1CC(C)OC(C)C1 (configuration not stated),IC50,[2],11.5 µM
same,IC50,[3],> 20 µM
same,IC50,[4],> 20 µM
same,IC50,[5],> 20 µM
COc1cc(/C=C2\C(=O)Nc3ccc(Br)cc32)ccc1OCCN1CCOCC1,IC50,[2],> 20 µM
same,IC50,[3],> 20 µM
same,IC50,[4],> 20 µM
same,IC50,[5],> 20 µM
COc1cc(/C=C2\C(=O)Nc3ccccc32)ccc1OCCCN1CC(C)OC(C)C1 (configuration not stated),IC50,[2],15.2 µM
same,IC50,[3],> 20 µM
same,IC50,[4],> 20 µM
same,IC50,[5],> 20 µM
COc1cc(/C=C2\C(=O)Nc3ccccc32)ccc1OCCCn1nc(C)cc1C,IC50,[2],> 20 µM
same,IC50,[3],> 20 µM
same,IC50,[4],> 20 µM
same,IC50,[5],> 20 µM
COc1cc(/C=C2\C(=O)Nc3ccc(C)cc32)ccc1OCCN1CCOCC1,IC50,[1],> 100 µM
same,IC50,[2],9.5 µM
same,IC50,[3],> 20 µM
same,IC50,[4],> 20 µM
same,IC50,[5],> 20 µM
COc1cc(/C=C2\C(=O)Nc3ccc(Cl)cc32)ccc1OCCN1CCOCC1,IC50,[1],61.3 µM
same,IC50,[2],3.31 µM
same,IC50,[3],3.52 µM
same,IC50,[4],4.43 µM
same,IC50,[5],14.7 µM
COc1cc(/C=C2\C(=O)Nc3ccc(C)cc32)ccc1OCCCN1CCN(c2ncccc2C(F)(F)F)CC1,IC50,[2],> 20 µM
same,IC50,[3],> 20 µM
same,IC50,[4],> 20 µM
same,IC50,[5],> 20 µM
COc1cc(/C=C2\C(=O)Nc3ccc(C)cc32)ccc1OCCCN1CCOCC1,IC50,[2],> 20 µM
same,IC50,[3],> 20 µM
same,IC50,[4],> 20 µM
same,IC50,[5],> 20 µM
COc1cc(/C=C2\C(=O)Nc3ccc(F)cc32)ccc1OCCN1CCOCC1,IC50,[2],> 20 µM
same,IC50,[3],> 20 µM
same,IC50,[4],> 20 µM
same,IC50,[5],> 20 µM
COc1cc(/C=C2\C(=O)Nc3ccc(Cl)cc32)ccc1OCCCN1CCN(c2ncccc2C(F)(F)F)CC1,Activity,[6],Active
same,Activity,[16],9.42%
same,Activity,[7],Active
same,Activity,[8],Active
same,IC50,[1],41.3 µM
same,Activity,[9],Active
same,Activity,[17],10.54%
same,Activity,[10],Active
same,Activity,[18],77.62%
same,IC50,[2],1.26 µM
same,Activity,[11],Active
same,Activity,[19],17.93%
same,IC50,[3],1.53 µM
same,Activity,[12],Active
same,Activity,[20],13.45%
same,Activity,[13],Active
same,Activity,[21],84.74%
same,Activity,[14],Active
same,IC50,[4],1.61 µM
same,Activity,[22],68.53%
same,Activity,[23],11.74%
same,IC50,[5],9.53 µM
same,Activity,[15],40%
same,Activity,[24],5.81%
COc1cc(/C=C2\C(=O)Nc3ccccc32)ccc1OCCCN1CCOCC1,IC50,[2],> 20 µM
same,IC50,[3],> 20 µM
same,IC50,[4],> 20 µM
same,IC50,[5],> 20 µM
COc1cc(/C=C2\C(=O)Nc3ccccc32)ccc1OCCCN1CCN(c2ccccn2)CC1,IC50,[2],> 20 µM
same,IC50,[3],> 20 µM
same,IC50,[4],> 20 µM
same,IC50,[5],> 20 µM
